Like-named read-outs stand apart in the source and are kept apart here.
Tests used:
[1] = system: inflammatory bowel disease; settings: trial terminated; cited from earlier work
[2] = Tissue distribution and oral exposure in ICR mice (LC-MS); type: in vivo; settings: oral 5 mg/kg; for AUC(0-t): mouse
Procedure: The tissue distribution experiment of compounds XYF573c and LSX472a of the present invention in ICR mice was carried out, and their distribution in plasma and organs and oral exposure (AUC0-8h) were compared.
ICR mice were purchased from Shanghai Experimental Animal Research Center.
The concentrations of the compounds in plasma and various organs of ICR mice were detected by LC-MS.
During the experiment, the mice were fasted for more than 12 hours, had free access to water, and provided with food 2 hours after administration.
Both compounds XYF573c and LSX472a were administered orally, the dose was 5 mg/kg, and the solvent was DMSO/0.5% HPMC (5/95, v/v), N=3.
At 0.5 h, 2 h and 8 h after oral administration, about 20 μL of mouse heart blood, portal vein plasma or 20 mg of liver, lung, and ileum tissues were taken in clean centrifuge tubes, 200 μL of MeOH/ACN (50/50, v/v) was added and spun in a vortex mixer for 1 min. The mixtures were centrifuged at 15,000 rpm for 5 min and 20 μL of supernatants were mixed with 20 μL of ACN/water (1/1, v/v) and quantified by LC-MS.
The values of AUC0-8h were calculated by trapezoidal method based on the concentrations of the compound at 0.5 h, 2 h and 8 h.

GPR84 [3] = molecular target: T1, GPR84 (Homo sapiens, UniProt Q9NQS5); experiment: GPR84 antagonistic activity, calcium flux (Fluo-4) assay with agonist 6-OAU; type: cell-based; set-up: expressed in transfected cells; host or cells: HEK293; settings: IC50, HEK293 cells with GPR84 and Gα16; Fluo-4 calcium signal; agonist 6-OAU around EC80
Procedure: The human GPR84 cell line was obtained by transfecting a HEK293 cell line with a plasmid encoding GPR84 and Gα16 proteins. Fluorescent dye Fluo-4AM was purchased from Invitrogen.
Intracellular Ca^2+ ion is a very important second messenger of G protein-coupled receptor signaling pathway. […] Fluo-4 is a Ca^2+ ion-specific fluorescent probe that binds quantitatively to Ca^2+ ions and emits fluorescence.
Detection of receptor inhibitory effect by GPR84 antagonist: After incubated with fluorescent dye Fluo-4, GPR84 cells were incubated with different concentrations of antagonistic compounds for a period of time to occupy the binding site of agonist to GPR84 (antagonistic binding site). A certain concentration of agonist (6-n-octylaminouracil, 6-OAU) was added to compete with the antagonist compound for binding sites. […] The half-inhibitory concentration (IC50) of the compound was calculated by using GraphPad PRISM software.
The above ingredients were weighed and dissolved in ultrapure water. pH was adjusted to 7.4 by using hydrochloric acid or NaOH solution. The mixture was filtered and stored at 4° C. for one month.
The buffer was prepared on site.
The cells were seeded in a 96-well plate at a density of 4×10^4 cells/well. After 24 hours of culture, the culture medium was removed, and 40 μL of Fluo-4AM fluorescent staining solution was added to each well and incubated in a 37° C. incubator for 40 minutes. After the dye was aspirated and discarded, 50 μL of the tested compound was added and incubated at room temperature for 10 minutes.
Target sequence in this assay (Q9NQS5 whole entry): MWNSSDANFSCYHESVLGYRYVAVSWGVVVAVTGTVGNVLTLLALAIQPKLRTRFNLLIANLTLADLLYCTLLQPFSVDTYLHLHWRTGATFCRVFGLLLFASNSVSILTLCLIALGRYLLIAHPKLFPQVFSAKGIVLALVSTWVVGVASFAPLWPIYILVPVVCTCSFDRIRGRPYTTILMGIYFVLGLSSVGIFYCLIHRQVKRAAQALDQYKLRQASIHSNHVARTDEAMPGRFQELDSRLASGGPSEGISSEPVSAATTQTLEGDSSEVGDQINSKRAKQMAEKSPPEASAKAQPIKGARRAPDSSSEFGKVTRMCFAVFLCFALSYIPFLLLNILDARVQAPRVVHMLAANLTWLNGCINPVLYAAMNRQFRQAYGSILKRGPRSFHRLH

GPR120 = molecular target: T2, GPR120 (Homo sapiens, UniProt Q5NUL3); settings: cited from earlier work
T2 sequence (Q5NUL3 1-361): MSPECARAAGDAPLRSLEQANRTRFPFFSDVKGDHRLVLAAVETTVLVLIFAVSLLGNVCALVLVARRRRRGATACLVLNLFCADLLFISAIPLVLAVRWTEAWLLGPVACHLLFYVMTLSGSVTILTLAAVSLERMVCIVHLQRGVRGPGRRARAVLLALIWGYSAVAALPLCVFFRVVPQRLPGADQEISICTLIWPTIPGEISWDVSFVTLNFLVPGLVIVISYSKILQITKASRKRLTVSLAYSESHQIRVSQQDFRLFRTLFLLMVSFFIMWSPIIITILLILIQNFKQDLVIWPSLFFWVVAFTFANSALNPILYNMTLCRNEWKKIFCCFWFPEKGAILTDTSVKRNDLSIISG

GPR40 = GPR40 (Homo sapiens, UniProt O14842); settings: cited from earlier work
GPR84 [4] = molecular target: T1, GPR84; settings: cited from earlier work
Target sequence in this assay (Q9NQS5 whole entry, species assumed): as the sequence (Q9NQS5 whole entry) above

Chain of GPR40 (O14842 whole entry, species assumed): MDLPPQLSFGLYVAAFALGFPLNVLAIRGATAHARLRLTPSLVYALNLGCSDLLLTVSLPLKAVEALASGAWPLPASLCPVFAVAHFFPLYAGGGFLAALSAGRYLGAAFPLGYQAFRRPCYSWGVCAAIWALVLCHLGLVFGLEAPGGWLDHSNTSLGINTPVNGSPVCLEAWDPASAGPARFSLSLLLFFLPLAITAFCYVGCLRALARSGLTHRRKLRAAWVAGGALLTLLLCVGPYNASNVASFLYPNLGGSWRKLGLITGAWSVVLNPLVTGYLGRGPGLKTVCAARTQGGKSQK

In the case of `O=c1nc(OC[C@@H]2COCCO2)cc2n1CCc1cc(C#CC3CC3)ccc1-2` [GLPG1205], the “efficacy in phase II clinical study versus placebo” value [1] is given as “lack of significant difference in efficacy from the placebo group”.

In the case of `COc1cccc2c1Sc1ccccc1C=C2OP(=O)(O)O[C@@H]1C[C@@H]2CC[C@@]1(C)C2(C)C` [LSX472a], the AUC(0-t) ([2]; heart plasma, read-out: AUC0-8h, Heart plasma) is reported as 7750 ng·h/mL, the AUC(0-t) ([2]; portal vein plasma, read-out: AUC0-8h, Portal vein plasma) is reported as 8820 ng·h/mL and the “exposure in the intestinal tract (such as Ileum) compared to XYF573c” value [2] is reported as “significantly increased”. For the same compound, the “AUC0-8h, Ileum” value ([2]; ileum) was 62902.60 ng·h/g, the “AUC0-8h, Liver” value ([2]; liver) was 4387.83 ng·h/g and the “AUC0-8h, Lung” value ([2]; lung) was 745.34 ng·h/g. For the same compound, the “increase in oral exposure (Plasma AUC0-8h) compared to XYF573c” value ([2]; plasma) was 13 fold.

In the case of `COc1cccc2c1Sc1ccccc1C=C2OP(=O)(O)O[C@@H]1CC[C@@]2(C)C(C1)C[C@@H](O)[C@H]1[C@@H]3CC[C@H]([C@H](C)CCC(=O)O)[C@@]3(C)CC[C@@H]12` (some centres unmarked) [LSX710], the IC50 (GPR84 [3]) is reported as 0.1 to 1 µM.

Work on `COc1cccc2c1Sc1ccccc1C=C2OP(=O)(O)O[C@@H]1CC[C@@]2(C)[C@@H](C1)C[C@@H](O)[C@@H]1[C@@H]2C[C@H](O)[C@]2(C)[C@@H]([C@H](C)CCC(=O)O)CC[C@@H]12` [LSX726] yielded an IC50 (GPR84 [3]) of 1 to 10 µM.

Compound `COc1cccc2c1Sc1ccccc1C=C2OP(=O)(O)OCCCNC(=O)CC[C@@H](C)[C@H]1CC[C@H]2[C@@H]3[C@H](O)C[C@@H]4C[C@H](O)CC[C@]4(C)[C@H]3C[C@H](O)[C@]12C` [LSX784] has an IC50 (GPR84 [3]) of 1 to 10 µM.

In the case of `CCCCCc1cc(CCCCC)cc(CC(=O)[O-])c1.[Na+]` [PBI-4547, 3,5-di-n-pentyl phenylacetate sodium], the “agonistic activity on GPR120” value (GPR120) is given as “agonistic activity”, the “agonistic activity on GPR40” value (GPR40) is given as “agonistic activity” and the “antagonistic activity on GPR84” value (GPR84 [4]) is given as “at the micromolar level”.
